Test results: ChEMBL document CHEMBL1201862, “PubChem BioAssay data set” (2004)
Active and inactive are the calls of the source.

How the values were obtained:
[1] = NIH-3T3 fibroblast cytotoxicity, dose response, cytotoxicity control, cell-based, fluorescence, Alamar Blue, secondary assay (AID 2327); type: functional;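 further: NIH-3T3 mouse fibroblasts cultured with fluconazole at 8 µg/mL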
[2] = fluconazole-exposed Candida albicans growth modulators – fluorescence, retest, confirmation (AID 2467); type: functional, cell-based
[3] = molecular target: Mitogen-activated protein kinase 10 (Homo sapiens, UniProt P53779); assay: Dose response biochemical screening assay for inhibitors of c-Jun N-Terminal Kinase 3 (JNK3). [Related pubchem assays: 746 ]
[4] = molecular target: Luciferin 4-monooxygenase (Photinus pyralis, UniProt P08659); assay: inhibition of purified Photinus pyralis luciferase – biochemical, luminescence, dose response (AID 1891)
[5] = Luminescence Cell-Based Dose Confirmation HTS to Identify Inhibitors of Platelet Dense Granule Release. [Related pubchem assays: 1663 (Primary HTS), 1678 (Summary of Project)]; type: functional
[6] = molecular target: T1, Microphthalmia-associated transcription factor (Homo sapiens, UniProt O75030); assay: reducers of TRPM1 reporter luminescence, concentration series – cell-based, SK-MEL-5, cherry-picked, set 3, MITF inhibitor project, dose response (AID 493073); type: functional;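 further: SK-MEL-5 melanoma cells with luciferase driven by the MITF target TRPM1 promoter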
T1 sequence (O75030 whole entry): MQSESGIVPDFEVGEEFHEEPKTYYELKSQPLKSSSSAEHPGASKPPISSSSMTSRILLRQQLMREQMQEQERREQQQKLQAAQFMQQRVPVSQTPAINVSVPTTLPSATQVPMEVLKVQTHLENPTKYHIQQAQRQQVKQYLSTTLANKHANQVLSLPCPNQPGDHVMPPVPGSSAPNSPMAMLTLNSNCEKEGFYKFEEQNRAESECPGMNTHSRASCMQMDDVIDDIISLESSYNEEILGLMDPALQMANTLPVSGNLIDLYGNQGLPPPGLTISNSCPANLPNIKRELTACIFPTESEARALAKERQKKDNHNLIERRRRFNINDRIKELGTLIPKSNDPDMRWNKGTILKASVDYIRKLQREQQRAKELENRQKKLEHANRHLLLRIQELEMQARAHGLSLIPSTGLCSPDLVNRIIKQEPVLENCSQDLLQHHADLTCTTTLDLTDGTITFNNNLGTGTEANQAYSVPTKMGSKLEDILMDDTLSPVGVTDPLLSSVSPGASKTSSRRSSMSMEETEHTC

[7] = blockers of HIV-1 envelope-mediated cell-cell fusion – cherry-pick, dose response (AID 652057); type: functional, cell-based
[8] = viability loss in CEM21 cells – cell-based, CellTiter-Glo luminescence, cherry-picked, cytotoxicity control for viral fusion inhibitor project, dose response (AID 652042); type: functional;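 further: potency for signal decrease meaning cytotoxicity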
[9] = blockers of HIV-1 ZM109 envelope-driven cell-cell fusion – HeLa effector, CEM target cells, luciferase, cherry-pick, dose response (AID 652058); type: functional, cell-based;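 further: luciferase signal from HIV-1 Env mediated cell-cell fusion of effector and target cells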
Paired box protein Pax-8 = Paired box protein Pax-8 (Homo sapiens, UniProt Q06710); assay: PAX8 transcriptional activity inhibition in RMG-I – RMG-I cells, luciferase, cherry-pick, dose response (AID 687027); type: functional, cell-based;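 further: luciferase reporter driven by Pax8 target thyroperoxidase promoter measured by SteadyGlo luminescence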
[10] = off-target signal loss in HeLa-CEM21 co-culture – HeLa F-luc CTL cells, cherry-picked, counter-screen for HIV-1 Env fusion inhibitor project, dose response (AID 652040); type: functional, cell-based;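 further: potency for signal decrease marking cytotoxic or nonspecific inhibition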
[11] = HIV-1 AD8 envelope cell-cell fusion blockers – cherry-pick, dose response (AID 652062); type: functional, cell-based;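 further: luciferase signal from cell-cell fusion driven by HIV-1 clade B AD8 Env; potency is for inhibitors of fusion seen as a drop in luminescence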
[12] = general cell-killing toxicity readout – plate reader, dry powder samples, cytotoxicity control for PAX8 inhibitor project, dose response (AID 743021); type: functional, cell-based
Cytochrome P450 3A4 = Cytochrome P450 3A4 (Homo sapiens, UniProt P08684);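 further: CYP3A4 tested as one member of a cytochrome P450 panel screen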
Cytochrome P450 2C9 = Cytochrome P450 2C9 (Homo sapiens, UniProt P11712)
[13] = microbe, parasite or virus in culture; type: functional; conditions: Mycobacterium tuberculosis
[14] = THP-1 cell cytotoxicity, dose response, cytotoxicity control for non-replicating M. tuberculosis project (AID 489025); type: functional
[15] = Vero E6 cell cytotoxicity, dose response, cytotoxicity control for non-replicating M. tuberculosis project, secondary assay (AID 492998); type: functional, VeroE6; conditions: Vero C1008
cells [16] = type: functional
[17] = molecular target: T2, High affinity choline transporter 1 (Homo sapiens, UniProt Q9GZV3); assay: human choline transporter blockers, potency – cell-based, 5-point CRC, membrane potential dye, dose response (AID 504840); type: functional
T2 sequence (Q9GZV3 whole entry): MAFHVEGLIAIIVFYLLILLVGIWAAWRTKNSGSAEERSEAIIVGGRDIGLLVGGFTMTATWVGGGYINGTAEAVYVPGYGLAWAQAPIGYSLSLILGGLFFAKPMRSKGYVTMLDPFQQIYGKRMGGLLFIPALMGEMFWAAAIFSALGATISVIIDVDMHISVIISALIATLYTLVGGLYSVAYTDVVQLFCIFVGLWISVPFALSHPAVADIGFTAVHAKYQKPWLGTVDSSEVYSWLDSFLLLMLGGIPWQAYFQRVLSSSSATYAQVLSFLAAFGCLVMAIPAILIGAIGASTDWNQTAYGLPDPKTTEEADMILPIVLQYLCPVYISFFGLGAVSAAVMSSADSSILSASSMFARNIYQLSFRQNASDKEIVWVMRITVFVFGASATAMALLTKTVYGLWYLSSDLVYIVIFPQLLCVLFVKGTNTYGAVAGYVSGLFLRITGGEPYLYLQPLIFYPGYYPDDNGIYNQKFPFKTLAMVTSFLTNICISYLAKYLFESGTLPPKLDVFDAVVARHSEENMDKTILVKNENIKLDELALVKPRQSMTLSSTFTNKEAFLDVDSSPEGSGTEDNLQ

Protein skinhead-1 = molecular target: T3, Protein skinhead-1 (Caenorhabditis elegans, UniProt P34707); type: functional
T3 sequence (P34707 whole entry): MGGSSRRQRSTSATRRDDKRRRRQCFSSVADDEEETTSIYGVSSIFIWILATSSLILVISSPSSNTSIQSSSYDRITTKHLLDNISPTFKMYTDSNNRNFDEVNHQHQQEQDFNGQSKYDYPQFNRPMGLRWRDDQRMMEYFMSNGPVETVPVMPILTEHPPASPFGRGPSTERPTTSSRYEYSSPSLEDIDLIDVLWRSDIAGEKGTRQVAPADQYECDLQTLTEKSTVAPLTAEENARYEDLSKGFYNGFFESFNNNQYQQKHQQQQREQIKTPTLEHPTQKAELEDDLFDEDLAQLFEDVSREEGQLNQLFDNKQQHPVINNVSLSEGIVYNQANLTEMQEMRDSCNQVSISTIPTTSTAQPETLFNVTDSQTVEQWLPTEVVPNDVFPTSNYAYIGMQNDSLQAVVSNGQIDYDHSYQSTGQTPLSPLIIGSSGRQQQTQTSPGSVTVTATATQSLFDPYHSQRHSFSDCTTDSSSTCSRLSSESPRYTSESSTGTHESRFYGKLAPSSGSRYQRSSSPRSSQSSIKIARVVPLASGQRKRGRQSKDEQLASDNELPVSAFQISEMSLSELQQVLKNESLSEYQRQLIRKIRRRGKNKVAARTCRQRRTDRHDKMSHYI

[18] = molecular target: T4, Oxysterols receptor LXR-beta (Homo sapiens, UniProt P55055); type: functional, cell-based;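 further: Cell-based luminescence dose-response assay of agonist activity at LXR, run as a confirmatory counterscreen to a daf-12 agonist screen; HEK293 cells with Gal4-LXR fusion and GAL4-driven luciferase reporter; agonist potency from rising luciferase signal of a Gal4-LXR reporter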
T4 sequence (P55055 whole entry): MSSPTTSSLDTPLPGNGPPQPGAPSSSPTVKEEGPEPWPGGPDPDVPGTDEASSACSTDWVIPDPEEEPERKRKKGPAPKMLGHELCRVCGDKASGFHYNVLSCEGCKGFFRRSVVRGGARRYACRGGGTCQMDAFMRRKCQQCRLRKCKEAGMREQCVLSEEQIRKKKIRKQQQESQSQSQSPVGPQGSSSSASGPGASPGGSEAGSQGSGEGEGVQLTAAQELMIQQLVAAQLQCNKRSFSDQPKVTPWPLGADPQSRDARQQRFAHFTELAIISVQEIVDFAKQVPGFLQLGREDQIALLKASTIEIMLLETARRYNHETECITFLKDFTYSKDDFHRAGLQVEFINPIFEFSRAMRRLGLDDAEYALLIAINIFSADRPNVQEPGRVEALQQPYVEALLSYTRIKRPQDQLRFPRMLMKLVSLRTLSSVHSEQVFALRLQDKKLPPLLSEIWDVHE

cells [19] = assay: cells

Sequence of Cytochrome P450 3A4 (P08684 whole entry): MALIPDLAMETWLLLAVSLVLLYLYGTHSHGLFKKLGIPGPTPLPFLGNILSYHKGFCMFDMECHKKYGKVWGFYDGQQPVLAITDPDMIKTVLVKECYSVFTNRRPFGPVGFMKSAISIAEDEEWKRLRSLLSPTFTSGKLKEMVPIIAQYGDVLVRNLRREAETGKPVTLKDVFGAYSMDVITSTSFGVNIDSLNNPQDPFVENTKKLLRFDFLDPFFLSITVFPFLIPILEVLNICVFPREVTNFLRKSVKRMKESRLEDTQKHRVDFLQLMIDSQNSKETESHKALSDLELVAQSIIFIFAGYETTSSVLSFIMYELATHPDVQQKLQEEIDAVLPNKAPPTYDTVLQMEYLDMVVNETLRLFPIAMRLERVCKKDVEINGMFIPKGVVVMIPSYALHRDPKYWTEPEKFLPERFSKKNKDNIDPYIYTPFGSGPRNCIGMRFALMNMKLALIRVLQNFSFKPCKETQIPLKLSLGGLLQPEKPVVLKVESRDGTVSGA
Sequence of Luciferin 4-monooxygenase (P08659 whole entry): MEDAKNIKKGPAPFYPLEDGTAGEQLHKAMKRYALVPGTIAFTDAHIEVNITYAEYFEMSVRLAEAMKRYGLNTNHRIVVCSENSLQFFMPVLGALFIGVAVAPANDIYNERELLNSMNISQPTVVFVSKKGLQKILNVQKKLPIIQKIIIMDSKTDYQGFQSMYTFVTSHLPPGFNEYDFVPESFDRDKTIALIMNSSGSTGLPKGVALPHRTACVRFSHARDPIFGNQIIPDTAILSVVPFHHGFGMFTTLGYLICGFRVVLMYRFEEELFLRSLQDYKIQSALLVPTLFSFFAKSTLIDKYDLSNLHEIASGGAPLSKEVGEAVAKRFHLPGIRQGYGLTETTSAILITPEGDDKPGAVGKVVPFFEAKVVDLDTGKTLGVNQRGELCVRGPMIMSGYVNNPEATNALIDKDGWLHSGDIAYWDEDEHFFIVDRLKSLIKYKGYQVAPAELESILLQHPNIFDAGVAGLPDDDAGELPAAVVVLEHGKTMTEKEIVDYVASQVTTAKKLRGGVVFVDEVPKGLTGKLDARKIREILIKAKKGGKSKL
Sequence of Cytochrome P450 2C9 (P11712 whole entry): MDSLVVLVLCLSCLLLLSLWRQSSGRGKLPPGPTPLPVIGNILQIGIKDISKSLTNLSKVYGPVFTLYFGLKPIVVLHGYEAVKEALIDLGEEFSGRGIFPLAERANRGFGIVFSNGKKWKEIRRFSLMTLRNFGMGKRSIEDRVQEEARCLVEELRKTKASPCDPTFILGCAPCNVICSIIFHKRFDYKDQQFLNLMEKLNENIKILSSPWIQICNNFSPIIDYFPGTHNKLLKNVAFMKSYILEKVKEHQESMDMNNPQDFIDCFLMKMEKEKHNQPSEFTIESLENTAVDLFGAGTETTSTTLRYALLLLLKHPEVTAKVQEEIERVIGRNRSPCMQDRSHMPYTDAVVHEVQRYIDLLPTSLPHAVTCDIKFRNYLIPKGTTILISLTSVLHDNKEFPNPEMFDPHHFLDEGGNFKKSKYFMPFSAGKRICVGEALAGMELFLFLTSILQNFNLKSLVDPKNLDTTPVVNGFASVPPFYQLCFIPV
Sequence of Mitogen-activated protein kinase 10 (P53779 whole entry): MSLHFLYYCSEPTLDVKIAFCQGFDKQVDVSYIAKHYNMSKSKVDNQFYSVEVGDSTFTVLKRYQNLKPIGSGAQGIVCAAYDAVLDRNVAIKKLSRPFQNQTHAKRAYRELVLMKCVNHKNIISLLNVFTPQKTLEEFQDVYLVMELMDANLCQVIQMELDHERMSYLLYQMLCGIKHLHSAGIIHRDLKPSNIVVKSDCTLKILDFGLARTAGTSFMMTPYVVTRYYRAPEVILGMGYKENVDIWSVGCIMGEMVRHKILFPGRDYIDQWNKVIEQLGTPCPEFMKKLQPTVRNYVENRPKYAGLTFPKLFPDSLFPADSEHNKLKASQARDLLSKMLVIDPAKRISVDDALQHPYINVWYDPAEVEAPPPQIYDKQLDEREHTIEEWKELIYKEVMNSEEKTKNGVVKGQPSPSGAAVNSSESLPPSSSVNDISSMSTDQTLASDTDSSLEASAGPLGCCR
Sequence of Paired box protein Pax-8 (Q06710 whole entry, the tested form may be a part): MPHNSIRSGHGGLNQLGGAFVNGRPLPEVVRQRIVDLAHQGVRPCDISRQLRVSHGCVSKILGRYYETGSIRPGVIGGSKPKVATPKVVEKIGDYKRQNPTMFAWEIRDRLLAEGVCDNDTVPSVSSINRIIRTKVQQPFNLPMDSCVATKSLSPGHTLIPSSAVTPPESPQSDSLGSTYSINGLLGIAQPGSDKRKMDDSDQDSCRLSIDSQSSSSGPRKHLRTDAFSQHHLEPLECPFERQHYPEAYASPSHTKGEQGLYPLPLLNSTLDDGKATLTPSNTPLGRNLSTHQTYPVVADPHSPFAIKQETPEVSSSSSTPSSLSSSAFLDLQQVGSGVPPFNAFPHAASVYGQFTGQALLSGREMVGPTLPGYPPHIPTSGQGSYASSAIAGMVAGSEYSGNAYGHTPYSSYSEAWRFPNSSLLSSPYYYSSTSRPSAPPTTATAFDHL

SMILES: COc1cc(CC(=O)Nc2nccs2)cc(OC)c1OC
- EC50 [1]: > 160 µM (inactive)
- EC50 [2]: > 38 µM (not active)
- IC50 [3]: > 93.1 µM (not active)

SMILES: O=C(O)c1ccc(N/N=C/c2ccc3nccnc3c2)cc1
- EC50 [4]: 3.43 µM (active)
- EC50 [5]: 7.25 µM (active)
- AC50 [6]: 696 nM (active)
- AC50 [7]: 685 nM (active)
- AC50 [8]: 46.5 µM (active)
- AC50 [9]: 6.51 µM (active)
- AC50 (Paired box protein Pax-8): 2.07 µM (active)
- AC50 [10]: 2.97 µM (active)
- AC50 [11]: 2.13 µM (active)
- AC50 [12]: 30.5 µM (active)

SMILES: O=C(Oc1ccccc1)N1CCC2(CC1)CCN(c1ncccn1)CC2
- AC50 (Cytochrome P450 3A4): inconclusive

SMILES: COC(=O)c1ccccc1NC(=O)c1c(Br)cnn1C
- AC50 (Cytochrome P450 3A4): inconclusive
- AC50 (Cytochrome P450 2C9): inconclusive

SMILES: CN1[C@@H]2CC[C@H]1CC(NC(=O)c1nn(C)c3ccccc13)C2 (some centres undefined)
- AC50 (Cytochrome P450 3A4): inconclusive

SMILES: O=C(Nc1cc(C(F)(F)F)ccc1-n1cncn1)c1ccc([N+](=O)[O-])o1
- CC50 [13]: 6.96 µM (active)
- CC50 [14]: 37.3 µM (active)
- CC50 [15]: 8.89 µM (active)
- IC50 (cells [16]): 19.8 µM (active)
- IC50 [17]: 11 µM (active)

SMILES: Cn1c(-c2ccco2)nc2cc3ccccc3cc21
- EC50 [4]: 0.695 µM (active)
- EC50 [5]: 2.69 µM (active)
- IC50 (Protein skinhead-1): 33.9 µM (active)
- EC50 [18]: > 67.5 µM (inactive)
- EC50 (cells [19]): > 67.5 µM (inactive)

SMILES: Cc1ccnc(NC(=S)NC(=O)c2cccs2)c1
- EC50 [18]: > 67.5 µM (inactive)
- EC50 (cells [19]): > 67.5 µM (inactive)
